“And” between values parts separate entries of the source, which are not always exact repeats. Identical values can stand only once.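 Following 48 hours of exposure in 96-well plates, responses at five concentrations were used to interpolate endpoints linearly. Here, GI50 denotes the concentration required for 50% inhibition of growth. TGI denotes the concentration required for complete inhibition of growth.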

Test systems include SK-MEL-5 melanoma; MDA-MB-435; BT-549 breast; RXF 393 renal; M14 melanoma; HCT-15 colon; UACC-257 melanoma; HOP-92 NSCLC; LOX IMVI melanoma; NCI-H460 lung.
Assay in all cases: inhibition of tumour cell growth, NCI panel, 48 h

For `C#Cc1cccc(Nc2ncnc3ccc(-c4cnc(N)nc4)cc23)c1`, the GI50 is 3.34 µM with SK-MEL-5 melanoma; 3.58 µM in the test with MDA-MB-435; 2.07 µM with BT-549 breast; 0.693 µM in the test with RXF 393 renal; 3.73 µM in the test on M14 melanoma; 2.55 µM in the test with HCT-15 colon. For the same molecule, the GI50 in the test with UACC-257 melanoma was 6.57 µM; in the test with HOP-92 NSCLC it was 0.211 µM; in the test with LOX IMVI melanoma, 2.78 µM; with NCI-H460 lung it was 2.95 µM. Also, the TGI was found to be 12.5 µM in the test on SK-MEL-5 melanoma; 15.6 µM with MDA-MB-435; 9.37 µM in the test with BT-549 breast; 3.44 µM in the test on RXF 393 renal; 15.7 µM in the test on M14 melanoma; 13.2 µM in the test with HCT-15 colon. The TGI was 46 µM in the test on UACC-257 melanoma, 3.15 µM with HOP-92 NSCLC, 11.3 µM with LOX IMVI melanoma and 14 µM with NCI-H460 lung.
For `CCOC1Oc2ccccc2C(=O)/C1=C\Nc1ccc(C(=O)O)c(O)c1` (stereo not drawn), the GI50 in the test with SK-MEL-5 melanoma is 18.6 µM; in the test on MDA-MB-435, 20.4 µM; with BT-549 breast, 26.4 µM; in the test with RXF 393 renal, 16.9 µM; with M14 melanoma, 17.3 µM; with HCT-15 colon, 16.4 µM. Moreover, the GI50 in the test on UACC-257 melanoma is 19.4 µM; in the test on HOP-92 NSCLC it was 19.6 µM; with LOX IMVI melanoma, 18.2 µM; in the test on NCI-H460 lung it was 38.9 µM. In addition, the TGI with SK-MEL-5 melanoma stood at 37.4 µM; in the test on MDA-MB-435 it was 44.4 µM; with BT-549 breast it was 87.5 µM; in the test on RXF 393 renal, 41.9 µM; in the test on M14 melanoma, 36 µM; with HCT-15 colon, 45.9 µM. The TGI with UACC-257 melanoma is 44.6 µM; in the test with HOP-92 NSCLC, 60.6 µM; in the test on LOX IMVI melanoma, 46.8 µM; in the test on NCI-H460 lung it was > 100 µM.
On to `COC1/C=C/OC2(C)Oc3c(C)c(O)c4c(O)c(c(/C=N/N(c5ccccc5)c5ccccc5)c(O)c4c3C2=O)NC(=O)C(C)=C/C=C/C(C)C(O)C(C)C(O)C(C)C(OC(C)=O)C1C` (stereo not drawn), for which the GI50 was 1.76 µM in the test with SK-MEL-5 melanoma; 1.65 µM with MDA-MB-435; 2.5 µM in the test with BT-549 breast; 0.963 µM with RXF 393 renal; 1.48 µM in the test on HCT-15 colon; 1.48 µM in the test with UACC-257 melanoma. The GI50 is 0.867 µM in the test on HOP-92 NSCLC, 1.04 µM in the test on LOX IMVI melanoma and 1.52 µM in the test on NCI-H460 lung. Also, the TGI with SK-MEL-5 melanoma was found to be 6.75 µM; in the test on MDA-MB-435 it was 5.05 µM; in the test with BT-549 breast, 8.83 µM; in the test with RXF 393 renal, 1.93 µM; in the test with HCT-15 colon, 5.45 µM; in the test on UACC-257 melanoma, 5.44 µM. In addition, the TGI in the test with HOP-92 NSCLC worked out at 2.86 µM; with LOX IMVI melanoma, 2.41 µM; with NCI-H460 lung it was 5.32 µM.
As for `O=C1/C=C/[C@@H](O)[C@@H]2C[C@@H](O)C[C@H]2/C=C/CCC[C@H](CCc2ccc(NC(=S)Nc3ccc4c(c3)C(=O)OC43c4ccc(O)cc4Oc4cc(O)ccc43)cc2)O1`, the GI50 in the test on SK-MEL-5 melanoma was 0.164 µM; in the test with MDA-MB-435 it was 0.377 µM; in the test with BT-549 breast, 0.451 µM; with RXF 393 renal, 0.266 µM; in the test on M14 melanoma it was 0.36 µM; with HCT-15 colon it was 0.889 µM. Moreover, the GI50 was 0.547 µM in the test on UACC-257 melanoma, 0.932 µM with HOP-92 NSCLC, 0.244 µM with LOX IMVI melanoma and 2.62 µM in the test on NCI-H460 lung. The TGI was 0.311 µM in the test on SK-MEL-5 melanoma; > 100 µM in the test on MDA-MB-435; 73.7 µM in the test on BT-549 breast; 0.736 µM with RXF 393 renal; > 49.2 µM in the test on M14 melanoma; > 100 µM with HCT-15 colon. Besides, the TGI in the test on UACC-257 melanoma was > 75.5 µM; with HOP-92 NSCLC, > 27.6 µM; in the test with NCI-H460 lung, > 100 µM.
Turning to `O=C(O)CC(S)C(=O)O.[Li+].[Sb]` (stereo not drawn), the GI50 with SK-MEL-5 melanoma was 13.7 µM; in the test with MDA-MB-435, > 100 µM; with BT-549 breast it was > 100 µM; in the test with RXF 393 renal, > 100 µM; with M14 melanoma, 39.5 µM; in the test with HCT-15 colon it was > 100 µM. The GI50 in the test on UACC-257 melanoma is > 100 µM; in the test with HOP-92 NSCLC, > 100 µM; with LOX IMVI melanoma it was 47.1 µM; in the test on NCI-H460 lung, 89.5 µM. The TGI is 29 µM with SK-MEL-5 melanoma; > 100 µM in the test on MDA-MB-435; > 100 µM with BT-549 breast; > 100 µM with RXF 393 renal; > 100 µM with M14 melanoma; > 100 µM with HCT-15 colon. Besides, the TGI in the test with UACC-257 melanoma, in the test on HOP-92 NSCLC, in the test on LOX IMVI melanoma and in the test with NCI-H460 lung was > 100 µM in each case.
Regarding `CC[C@H](C)[C@H](NC(=O)[C@H]1CCCCN1C)C(=O)N(C)[C@H](C[C@@H](OC(C)=O)c1nc(C(=O)NC23C4C5C2C2C3C4C52C(=O)OC)cs1)C(C)C` (stereo partly drawn), the GI50 with SK-MEL-5 melanoma is 0.000838 µM and 0.0025 µM; in the test with MDA-MB-435 it was 0.000349 µM and < 0.0025 µM; in the test on BT-549 breast it was 0.00344 µM and 0.0025 µM; in the test on RXF 393 renal it was 0.000768 µM; with M14 melanoma, 0.00713 µM and < 0.0025 µM; in the test with HCT-15 colon, 0.00763 µM and 0.00302 µM. Besides, the GI50 in the test with HOP-92 NSCLC is 5.44 µM; with LOX IMVI melanoma, 0.00108 µM and 0.0025 µM; in the test on NCI-H460 lung it was 0.003 µM and 0.0025 µM. Moreover, the TGI in the test on SK-MEL-5 melanoma is 0.0241 µM and 0.0102 µM; in the test on MDA-MB-435, 0.00278 µM and < 0.0025 µM; in the test with BT-549 breast, 0.0801 µM and 0.0268 µM; in the test with RXF 393 renal, 0.00906 µM; in the test with M14 melanoma it was < 0.0025 µM; in the test with HCT-15 colon, > 25 µM. Moreover, the TGI in the test with HOP-92 NSCLC, with LOX IMVI melanoma and in the test with NCI-H460 lung was > 25 µM each time.
Consider `CSc1nc(SC)c2c(C)c(Br)[nH]c2n1`, for which the TGI in the test on SK-MEL-5 melanoma, in the test with MDA-MB-435, in the test with BT-549 breast, in the test on RXF 393 renal, in the test with M14 melanoma and with HCT-15 colon was > 100 µM throughout. The TGI in the test with HOP-92 NSCLC, in the test with LOX IMVI melanoma and in the test on NCI-H460 lung was > 100 µM throughout.
In the case of `COc1ccc(C2CC(c3ccc4ccccc4c3)=NN2c2nc(O)c(C3=c4cc(Cl)ccc4=NC3=O)s2)cc1` (stereo not drawn), the GI50 in the test with SK-MEL-5 melanoma was 0.0175 µM and < 0.005 µM; with MDA-MB-435, 0.0215 µM and < 0.005 µM; with BT-549 breast, 0.0499 µM and < 0.005 µM; in the test on RXF 393 renal, 0.0186 µM and < 0.005 µM; in the test on M14 melanoma, 0.0354 µM and < 0.005 µM; in the test with HCT-15 colon, 0.0342 µM. The GI50 was 0.0168 µM and < 0.005 µM in the test with HOP-92 NSCLC; 0.0223 µM and < 0.005 µM with LOX IMVI melanoma; 0.0216 µM in the test with NCI-H460 lung. In addition, the TGI with SK-MEL-5 melanoma was 0.0337 µM and < 0.005 µM; in the test on MDA-MB-435, 0.0483 µM and < 0.005 µM; with RXF 393 renal, 0.0389 µM and < 0.005 µM; with HCT-15 colon, 0.229 µM; in the test on NCI-H460 lung it was 0.0472 µM.

The record behind these values is PubChem BioAssay (NCI).
